Tests used:
Format in all cases: cell-based
Settings in all cases: compound concentration 50 μM, 72 hours
MDA-MB-453 = experiment: Inhibition of tumor cell proliferation, CellTiter-Glo, MDA-MB-453
Description: (§1) For various cell lines, the corresponding complete medium was used, and culture was carried out in an incubator at 37° C. with 5% CO2. The cells were counted, and inoculated into a 96-well plate at 2000-10000 cells/100 μl per well according to the cell volume and growth rate. The suspended cells were treated immediately, and the adherent cells were treated after adherence. The CellTiter-Glo method was used to detect the changes in cell viability 72 hours after the administration, and the cell survival rate at different concentrations was calculated by a formula: Survival rate (%)=(RLU of treatment well−RLU of blank well)/(RLU of control well−RLU of blank well)×100.
(§2) Method for expressing the inhibitory activity of the compounds against the proliferation of tumor cells: Evaluation was made based on the cell survival rate at a compound concentration of 50 μM. 60≤survival rate (%)<90 is considered to have low inhibitory activity against the proliferation of tumor cells (+); 30<survival rate (%)≤60 is considered to have moderate inhibitory activity against the proliferation of tumor cells (++); and survival rate (%)≤30 is considered to have high inhibitory activity against the proliferation of tumor cells (+++).

RPMI-8226 = experiment: Inhibition of tumor cell proliferation, CellTiter-Glo, RPMI-8226
Description: as §1, §2

A549 = experiment: Inhibition of tumor cell proliferation, CellTiter-Glo, A549
Description: as §1, §2

K562 = experiment: Inhibition of tumor cell proliferation, CellTiter-Glo, K562
Description: as §1, §2

SU-DHL6 = experiment: Inhibition of tumor cell proliferation, CellTiter-Glo, SU-DHL6
Description: as §1, §2

BxPC-3 = experiment: Inhibition of tumor cell proliferation, CellTiter-Glo, BxPC-3
Description: as §1, §2

Row | Structure (SMILES) | cell survival rate (%) at 50 µM (MDA-MB-453; Homo sapiens, MDA-MB-453, read-out: Inhibitory activity against proliferation (cell survival rate) MDA-MB-453) [%] | cell survival rate (% of control) at 50 µM (RPMI-8226; Homo sapiens, RPMI-8226, read-out: Inhibitory activity against proliferation (cell survival rate) RPMI-8226) [%] | cell survival rate (% of control) at 50 µM (A549; Homo sapiens, A549, read-out: Inhibitory activity against proliferation (cell survival rate) A549) [%] | cell survival rate (%) at 50 µM (K562; Homo sapiens, K562, read-out: Inhibitory activity against proliferation (cell survival rate) K562) [%] | cell survival rate (% of control) at 50 µM (SU-DHL6; Homo sapiens, SU-DHL-6, read-out: Inhibitory activity against proliferation (cell survival rate) SU-DHL6) [%] | cell survival rate (%) at 50 µM (BxPC-3; Homo sapiens, BXPC-3, read-out: Inhibitory activity against proliferation (cell survival rate) BxPC-3) [%] | Inhibitory activity against proliferation (cell survival rate) MDA-MB-453 (MDA-MB-453) | Inhibitory activity against proliferation (cell survival rate) RPMI-8226 (RPMI-8226) | Inhibitory activity against proliferation (cell survival rate) A549 (A549) | Inhibitory activity against proliferation (cell survival rate) K562 (K562) | Inhibitory activity against proliferation (cell survival rate) SU-DHL6 (SU-DHL6) | Inhibitory activity against proliferation (cell survival rate) BxPC-3 (BxPC-3)
1 | O=C1CCC(N2Cc3c(N/C=C4\C(=O)Nc5cc(C(F)(F)F)ccc5C4=O)cccc3C2=O)C(=O)N1 (stereo not drawn) [Compound 137] | 60 to 90 | ≤ 30 | 60 to 90 | 30 to 60 | ≤ 30 | 30 to 60 |  |  |  |  |  | 
2 | O=C1CCC(N2Cc3c(NCCOCCOCCOCCN4CCN(CCNC=C5C(=O)CC(c6ccccc6)CC5=O)CC4)cccc3C2=O)C(=O)N1 (stereo not drawn) [Compound 133] |  |  |  |  |  |  | + (60≤survival rate (%)<90) | + (60≤survival rate (%)<90) | + (60≤survival rate (%)<90) | ++ (30<survival rate (%)≤60) | + (60≤survival rate (%)<90) | ++ (30<survival rate (%)≤60)
3 | O=C1CCC(N2Cc3c(NC=C4C(=O)CC(c5ccccc5F)CC4=O)cccc3C2=O)C(=O)N1 (stereo not drawn) [Compound 24] |  |  |  |  |  |  | ++ (30<survival rate (%)≤60) | + (60≤survival rate (%)<90) | ++ (30<survival rate (%)≤60) | + (60≤survival rate (%)<90) | +++ (survival rate (%)≤30) | ++ (30<survival rate (%)≤60)
4 | O=C1CCC(N2Cc3c(NC=C4C(=O)CC(c5cccc6sccc56)CC4=O)cccc3C2=O)C(=O)N1 (stereo not drawn) [Compound 27] |  |  |  |  |  |  | +++ (survival rate (%)≤30) | +++ (survival rate (%)≤30) | +++ (survival rate (%)≤30) | +++ (survival rate (%)≤30) | +++ (survival rate (%)≤30) | + (60≤survival rate (%)<90)
5 | O=C1CCC(N2Cc3c(NC(=O)OCCNC=C4C(=O)CC(c5ccccc5)CC4=O)cccc3C2=O)C(=O)N1 (stereo not drawn) [Compound 78] |  |  |  |  |  |  | +++ (survival rate (%)≤30) | + (60≤survival rate (%)<90) | +++ (survival rate (%)≤30) | +++ (survival rate (%)≤30) | + (60≤survival rate (%)<90) | + (60≤survival rate (%)<90)
6 | O=C1CCC(N2Cc3c(NC(=O)OCc4cnc(NC=C5C(=O)CC(c6ccccc6)CC5=O)s4)cccc3C2=O)C(=O)N1 (stereo not drawn) [Compound 84] |  |  |  |  |  |  | +++ (survival rate (%)≤30) | +++ (survival rate (%)≤30) | + (60≤survival rate (%)<90) | +++ (survival rate (%)≤30) | +++ (survival rate (%)≤30) | + (60≤survival rate (%)<90)
7 | CN(C)c1ccc(Br)c(C2CC(=O)C(=CNc3cccc4c3CN(C3CCC(=O)NC3=O)C4=O)C(=O)C2)c1 (stereo not drawn) [Compound 31] |  |  |  |  |  |  | +++ (survival rate (%)≤30) | +++ (survival rate (%)≤30) | +++ (survival rate (%)≤30) | +++ (survival rate (%)≤30) | +++ (survival rate (%)≤30) | + (60≤survival rate (%)<90)
8 | CC(C)Cn1cccc1C1CC(=O)C(=CNc2cccc3c2CN(C2CCC(=O)NC2=O)C3=O)C(=O)C1 (stereo not drawn) [Compound 116] |  |  |  |  |  |  | ++ (30<survival rate (%)≤60) | ++ (30<survival rate (%)≤60) | ++ (30<survival rate (%)≤60) | ++ (30<survival rate (%)≤60) | + (60≤survival rate (%)<90) | ++ (30<survival rate (%)≤60)
9 | Cc1ccccc1C1CC(=O)C(=CNc2cccc3c2CN(C2CCC(=O)NC2=O)C3=O)C(=O)C1 (stereo not drawn) [Compound 4] |  |  |  |  |  |  | + (60≤survival rate (%)<90) | +++ (survival rate (%)≤30) | + (60≤survival rate (%)<90) | ++ (30<survival rate (%)≤60) | + (60≤survival rate (%)<90) | + (60≤survival rate (%)<90)
10 | O=C1CCC(N2Cc3c(NC=C4C(=O)CC(c5cccc6ccccc56)CC4=O)cccc3C2=O)C(=O)N1 (stereo not drawn) [Compound 29] |  |  |  |  |  |  | +++ (survival rate (%)≤30) | +++ (survival rate (%)≤30) | +++ (survival rate (%)≤30) | +++ (survival rate (%)≤30) | ++ (30<survival rate (%)≤60) | ++ (30<survival rate (%)≤60)
11 | O=C1CCC(N2C(=O)c3ccc(NC=C4C(=O)CC(c5ccccc5)CC4=O)cc3C2=O)C(=O)N1 (stereo not drawn) [Compound 9] |  |  |  |  |  |  | + (60≤survival rate (%)<90) | ++ (30<survival rate (%)≤60) | ++ (30<survival rate (%)≤60) | ++ (30<survival rate (%)≤60) | + (60≤survival rate (%)<90) | ++ (30<survival rate (%)≤60)
12 | O=C1CCC(N2Cc3ccc(NC=C4C(=O)CC(c5ccccc5)CC4=O)cc3C2=O)C(=O)N1 (stereo not drawn) [Compound 10] |  |  |  |  |  |  | + (60≤survival rate (%)<90) | ++ (30<survival rate (%)≤60) | + (60≤survival rate (%)<90) | ++ (30<survival rate (%)≤60) | + (60≤survival rate (%)<90) | ++ (30<survival rate (%)≤60)
13 | COc1ccc(C2CC(=O)C(=CNc3cccc4c3CN(C3CCC(=O)NC3=O)C4=O)C(=O)C2)c(OC)c1 (stereo not drawn) [Compound 40] |  |  |  |  |  |  | + (60≤survival rate (%)<90) | + (60≤survival rate (%)<90) | +++ (survival rate (%)≤30) | +++ (survival rate (%)≤30) | + (60≤survival rate (%)<90) | ++ (30<survival rate (%)≤60)
14 | O=C1CCC(N2Cc3c(NC(=O)Nc4ccccc4OC(=O)CCC(=O)OCCN4CCN(CCNC=C5C(=O)CC(c6ccccc6)CC5=O)CC4)cccc3C2=O)C(=O)N1 (stereo not drawn) [Compound 81] |  |  |  |  |  |  | ++ (30<survival rate (%)≤60) | + (60≤survival rate (%)<90) | +++ (survival rate (%)≤30) | +++ (survival rate (%)≤30) | +++ (survival rate (%)≤30) | + (60≤survival rate (%)<90)
15 | CCOC(=O)C1CC(=O)C(=CNc2cccc3c2CN(C2CCC(=O)NC2=O)C3=O)C(=O)C1 (stereo not drawn) [Compound 134] |  |  |  |  |  |  | +++ (survival rate (%)≤30) | + (60≤survival rate (%)<90) | + (60≤survival rate (%)<90) | + (60≤survival rate (%)<90) | + (60≤survival rate (%)<90) | ++ (30<survival rate (%)≤60)
